Patent US4227003A, “Bromo-A-23187 derivatives” (Eli Lilly and Company, priority 1978, dated 1980)

Tests used:
[1] = system: Staphylococcus aureus (H-Heatley strain, NRRL B-314); assay: Bioassay for antibacterial activity; type: cell-based
Description: The compounds of this invention are useful antibacterial agents. In this aspect, these compounds may be used in the same manner in which the parent antibiotic is used, as described in U.S. Pat. No. 3,923,823. A bioassay for the antibacterial activity of A-23187 has been described by J. E. Westhead in Antimicrobial Agents and Chemotherapy 11 (5), 916-918 (1977). The test organism for this bioassay is Staphylococcus aureus (H-Heatley strain, NRRL B-314).

[2] = Acute toxicity in mice, intraperitoneal; conditions: mouse, in vivo, ip
Method: The compounds of the present invention are, in general, less toxic than the parent antibiotic. Table II summarizes the acute toxicities of representative compounds in mice, expressed as LD50, when the compounds are administered intraperitoneally.

[3] = target: cation transport ATPase in liver mitochondria; assay: In vitro inhibition of cation transport ATPase in liver mitochondria; type: biochemical
Description: In yet another aspect, the compounds of this invention are active as inhibitors of the enzyme ATPase. ATPase, an alkali-metal-sensitive enzyme found in cell membranes, is involved in the energy necessary for active transport. "Active transport" refers to the energy-requiring series of operations whereby intracellular and extracellular fluids maintain their compositions. Inhibitors of ATPase reduce the energy required for active transport. Table III summarizes the results of in vitro tests measuring inhibition of cation transport ATPase in liver mitochondria [measured as half effective concentration (Ic50) in mcg/ml].

[4] = cited from earlier work
[5] = Pfeiffer and Lardy, Biochemistry 15, 935 (1976)

| Compound | Bioassay [1] | LD50 [2] | half effective concentration (Ic50), ATPase induced by CaCl2 [3] | half effective concentration (Ic50), ATPase induced by K^+ monazomycin [3] | discrimination for divalent over monovalent cations [4, 5] | transport of Mg^2+ versus Ca^2+ [4, 5] | selectivity for transport of divalent over monovalent cations ([4]; background, among approximately 100 known ionophores) |
| --- | --- | --- | --- | --- | --- | --- | --- |
| CNc1ccc2oc(CC3OC4(CCC3C)OC(C(C)C(=O)c3cc(Br)c[nH]3)C(C)CC4C)nc2c1C(=O)O (stereo not drawn) [23-bromo-A-23187 (free acid), 5-(methylamino)-2-[[3β,9α,11β-trimethyl-8-[1α-methyl-2-oxo-2-(4-bromo-1H-pyrrol-2-yl)ethyl]-1,7-dioxaspiro[5.5]undec-2β-yl]methyl]-4-benzoxazolecarboxylic acid] | 1766 µg/mL | 23.7 mg/kg | > 10 µg/mL | 0.1 µg/mL | – | – | – |
| CNc1ccc2oc(CC3OC4(CCC3C)OC(C(C)C(=O)c3ccc[nH]3)C(C)CC4C)nc2c1C(=O)O (centres unmarked) [A-23187 (free acid), reference compound] | 1060 µg/mL | – | 0.5 µg/mL | 0.5 µg/mL | not complete | transports Mg^2+ with a similar efficiency to Ca^2+ | substantially selective for the transport of divalent over monovalent cations |
| CNc1ccc2oc(CC3OC4(CCC3C)OC(C(C)C(=O)c3cc(Br)c(Br)[nH]3)C(C)CC4C)nc2c1C(=O)O (stereo not drawn) [23,24-dibromo-A-23187 (free acid), 5-(methylamino)-2-[[3β,9α,11β-trimethyl-8-[1α-methyl-2-oxo-2-(4,5-dibromo-1H-pyrrol-2-yl)ethyl]-1,7-dioxaspiro[5.5]undec-2β-yl]methyl]-4-benzoxazolecarboxylic acid] | 1105 µg/mL | 79.8 mg/kg | 0.8 µg/mL | 0.1 µg/mL | – | – | – |
